Experimental data: patent publication US7887833B2, “Amphiphilic compounds and vesicles liposomes for organ-specified drug targeting” (Ben-Gurion University of the Negev Research and Development …, priority 2001, dated 2011)

How the values were obtained:
Type in all cases: biochemical
cholinesterases (ChE) = assay: pH-stat method: hydrolysis of headgroups by cholinesterases of human serum; conditions: 100 mM solutions diluted 100 times, pH 9.0, human serum 0.1 ml, 15 min
Procedure: The ability of cholinesterases (ChE) to hydrolyze Derivatives 1 and 2 was assessed using two methods:
(i) The pH-stat method: Hydrolysis of the acetylcholine ester headgroups of Derivative 1, as well as of acetylcholine (ACh), by cholinesterases (ChE), releases acetic acid into the solution. Hydrolysis of Derivative 2 by ChE releases choline and a free fatty acid. In both cases, the release of acid results in pH drop. The hydrolysis rate of these compounds can be determined by measuring the amount of NaOH needed to neutralize the acid generated during hydrolysis. Three solutions, 100 mM concentration each of acetylcholine (ACh) in water and of Derivatives 1 and 2 in methanol were prepared, then diluted 100 times with water (10 ml), and their pH was adjusted to pH 9.0 using 0.1M NaOH. The pH was monitored until it remained stable for 10 min (baseline). At this stage, human serum (0.1 ml) containing ChE, was added and each of the solutions was titrated with 0.05M NaOH in order to maintain pH 9.0. The amount of the NaOH needed to maintain constant pH was measured during 15 min. […] Thus vesicles prepared from Derivative 1 are expected to disrupt, in presence of ChE, faster than vesicles made from Derivative 2.

[1] = tested on: acetylcholinesterase (ACHE); assay: Competition assay using the Elman's method (acetylthiocholine/DTNB); conditions: acetylthiocholine 1.5 mM, DTNB 0.5 mM, 3 units AChE, phosphate-buffered saline
Procedure: (ii) Competition assay using the Elman's method: Hydrolysis of acetylthiocholine (ATC) releases thiocholine, which reduces 5,5′-dithiobis-2-nitrobenzoate (DTNB) giving rise to a yellow coloring of the solution. […] A series of solutions with varying concentrations of Derivatives 1 and 2 in methanol together with acetylthiocholine (1.5 mM), DTNB (0.5 mM), and with 3 units of acetylcholinesterase (ACHE) in phosphate-buffered saline, was prepared. The rate of appearance of yellow color was determined in each of the reaction mixtures. […] Thus, vesicles prepared from Derivative 1 are expected to disrupt faster than vesicles prepared from Derivative 2, when exposed to cholinesterases.

[2] = molecular target: T1, aromatic L-amino acid decarboxylase (AADC) (Rattus norvegicus, UniProt P14173); assay: Decarboxylation of headgroup by AADC from rat liver homogenate (HPLC, electrochemical detector)
T1 construct: rat liver homogenate served as the source for AADC; from tissue; host or cells: rat liver homogenate
T1 sequence (P14173 1-480): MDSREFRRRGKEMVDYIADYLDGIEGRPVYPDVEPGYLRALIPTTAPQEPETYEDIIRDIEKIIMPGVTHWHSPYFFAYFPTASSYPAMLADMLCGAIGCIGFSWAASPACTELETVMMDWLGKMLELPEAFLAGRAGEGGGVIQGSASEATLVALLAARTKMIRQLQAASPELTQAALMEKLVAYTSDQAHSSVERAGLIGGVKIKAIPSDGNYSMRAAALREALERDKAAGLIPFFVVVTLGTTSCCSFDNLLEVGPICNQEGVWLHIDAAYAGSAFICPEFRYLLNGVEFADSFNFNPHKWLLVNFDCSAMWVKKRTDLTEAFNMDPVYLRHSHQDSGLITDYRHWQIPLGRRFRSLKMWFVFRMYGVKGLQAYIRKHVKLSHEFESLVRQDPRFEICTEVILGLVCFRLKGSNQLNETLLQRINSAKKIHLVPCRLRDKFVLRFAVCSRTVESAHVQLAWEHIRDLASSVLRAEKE
From the text: Derivative 5 contains an aromatic amino acid moiety as a headgroup. This negatively charged headgroup, at physiological pH, may be a suitable substrate for the enzyme aromatic L-amino acid decarboxylase (AADC). Upon exposure to AADC, the headgroup of Derivative 5 should be converted to an amine thus changing the nature of the headgroup (from a carboxyl to amine) in a way that can result in destabilization of vesicles made from Derivative 5.
To test whether Derivative 5 could serve as a substrate for AADC, rat liver homogenate served as the source for AADC and the following experiment was carried out. A methanol solution (0.005 ml) of Derivative 5 was added to a reaction mixture (0.5 ml final volume) containing potassium phosphate (50 mM, pH=7.0), dithiothreitol (1 mM), EDTA (0.2 mM), pyridoxal 5′-phosphate (0.01 mM), pargylin (0.1 mM), and rat liver homogenate adjusted to 5 mg protein. The final concentration of Derivative 5 was 1 mM. The reaction mixture was incubated at 37° C. for 60 min followed by the addition of 0.05 ml perchloric acid (70%) and neutralized by 4M KOH. The mixture was then centrifuged at 20.000 g for 10 min at 4° C. and 0.1 ml of the supernatant was injected into a C18-HPLC column. The presence of the amine, which was formed during the reaction, was determined by electrochemical detector. […]

SMILES	hydrolysis rate (NaOH needed to maintain constant pH) (cholinesterases (ChE))	competition with acetylthiocholine for the hydrolyzing enzyme (rate of appearance of yellow color) [1]	decarboxylation to the amine (HPLC peak) ([2]; 1 mM, rat liver homogenate 5 mg protein, 37° C., 60 min)	amine peak in presence of benserazide ([2]; benserazide 5×10^-5 M added to the reaction mixture)
CCCCCC(OC(=O)C[N+](C)(C)CCOC(C)=O)C(O)CC=CCCCCCCCC(=O)NCCNC(=O)CCCCCCCC=CCC(O)C(CCCCC)OC(=O)C[N+](C)(C)CCOC(C)=O (stereo not shown) [Derivative 1]	faster hydrolysis	higher extent		
CCCCCC(OC(=O)CNc1ccc(CC(N)C(=O)O)cc1)C(O)CC=CCCCCCCCC(=O)NCCNC(=O)CCCCCCCC=CCC(O)C(CCCCC)OC(=O)CNc1ccc(CC(N)C(=O)O)cc1 (stereo not shown) [Derivative 5]			decarboxylated	not detectable
